Laboratory results: patent US10351561B2, “Pyrazolo[3,4-b]pyridines and imidazo[1,5-b]pyridazines as PDE1 inhibitors” (H. Lundbeck A/S, priority 2016, dated 2019)
Read-outs that look alike come from different tables or passages of the source.

Columns and labels:
Assay type in all cases: biochemical
Details in all cases: 15 nM tritium labelled cAMP, 1 hr at room temperature, SPA beads
[1] = target: PDE1B (Homo sapiens, UniProt Q01064); assay: PDE1 inhibition assay (PDE1B), SPA with tritium labelled cAMP
Description: Reactions were initiated by addition of the cyclic nucleotide substrate, and reactions were allowed to proceed for 1 hr at room temperature before being terminated through mixing with 20 μL (0.2 mg) yttrium silicate SPA beads (PerkinElmer).

[2] = target: PDE1C (Homo sapiens, UniProt Q14123); assay: PDE1 inhibition assay (PDE1C), SPA with tritium labelled cAMP
Description: (§1) PDE1A, PDE1B and PDE1C assays were performed as follows: the assays were performed in 60 μL samples containing a fixed amount of the PDE1 enzyme (sufficient to convert 20-25% of the cyclic nucleotide substrate), a buffer (50 mM HEPES (4-(2-hydroxyethyl)-1-piperazineethanesulfonic acid) pH 7.6; 10 mM MgCl2; 0.02% Tween20), 0.1 mg/ml BSA (bovine serum albumin), 15 nM tritium labelled cAMP and varying amounts of inhibitors. Reactions were initiated by addition of the cyclic nucleotide substrate, and reactions were allowed to proceed for 1 hr at room temperature before being terminated through mixing with 20 μL (0.2 mg) yttrium silicate SPA beads (PerkinElmer). The beads were allowed to settle for 1 hr in the dark before the plates were counted in a Wallac 1450 Microbeta counter. The measured signals were converted to activity relative to an uninhibited control (100%) and IC50 values were calculated using XIFit (model 205, IDBS).

[3] = target: PDE1A (Homo sapiens, UniProt P54750); assay: PDE1 inhibition assay (PDE1A), SPA with tritium labelled cAMP
Description: as §1

PDE1C, sequence (Q14123 whole entry): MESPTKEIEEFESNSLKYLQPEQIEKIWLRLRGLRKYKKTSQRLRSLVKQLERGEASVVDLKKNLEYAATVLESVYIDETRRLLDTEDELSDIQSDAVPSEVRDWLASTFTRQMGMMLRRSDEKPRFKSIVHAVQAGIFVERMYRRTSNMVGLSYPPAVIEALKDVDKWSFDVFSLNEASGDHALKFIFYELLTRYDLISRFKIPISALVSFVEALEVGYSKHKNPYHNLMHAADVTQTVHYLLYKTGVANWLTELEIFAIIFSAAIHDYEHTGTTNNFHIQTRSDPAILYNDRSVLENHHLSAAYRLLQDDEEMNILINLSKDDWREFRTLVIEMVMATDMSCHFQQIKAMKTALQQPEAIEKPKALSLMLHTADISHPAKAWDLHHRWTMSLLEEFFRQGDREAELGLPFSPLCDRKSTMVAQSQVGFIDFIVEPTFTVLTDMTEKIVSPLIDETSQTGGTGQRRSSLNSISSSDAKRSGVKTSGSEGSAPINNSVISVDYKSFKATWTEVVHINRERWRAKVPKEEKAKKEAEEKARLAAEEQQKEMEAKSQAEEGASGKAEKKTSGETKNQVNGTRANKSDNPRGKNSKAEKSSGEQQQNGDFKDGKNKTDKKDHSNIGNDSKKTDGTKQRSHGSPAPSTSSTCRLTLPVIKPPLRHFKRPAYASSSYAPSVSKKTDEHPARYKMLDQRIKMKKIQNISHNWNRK
PDE1B, sequence (Q01064 whole entry): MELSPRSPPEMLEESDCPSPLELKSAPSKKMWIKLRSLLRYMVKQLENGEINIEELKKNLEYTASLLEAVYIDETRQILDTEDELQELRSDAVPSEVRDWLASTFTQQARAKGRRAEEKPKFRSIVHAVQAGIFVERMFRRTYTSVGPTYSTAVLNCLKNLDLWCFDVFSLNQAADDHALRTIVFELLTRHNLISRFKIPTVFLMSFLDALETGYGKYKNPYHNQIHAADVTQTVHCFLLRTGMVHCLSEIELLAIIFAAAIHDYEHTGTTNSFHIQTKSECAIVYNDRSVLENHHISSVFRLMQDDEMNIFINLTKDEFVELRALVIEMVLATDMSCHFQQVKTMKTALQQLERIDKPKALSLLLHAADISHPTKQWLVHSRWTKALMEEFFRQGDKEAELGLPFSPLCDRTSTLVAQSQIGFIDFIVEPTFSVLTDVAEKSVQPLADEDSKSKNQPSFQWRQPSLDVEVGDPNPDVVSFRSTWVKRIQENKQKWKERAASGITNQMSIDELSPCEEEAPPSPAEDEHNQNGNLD
PDE1A, sequence (P54750 whole entry): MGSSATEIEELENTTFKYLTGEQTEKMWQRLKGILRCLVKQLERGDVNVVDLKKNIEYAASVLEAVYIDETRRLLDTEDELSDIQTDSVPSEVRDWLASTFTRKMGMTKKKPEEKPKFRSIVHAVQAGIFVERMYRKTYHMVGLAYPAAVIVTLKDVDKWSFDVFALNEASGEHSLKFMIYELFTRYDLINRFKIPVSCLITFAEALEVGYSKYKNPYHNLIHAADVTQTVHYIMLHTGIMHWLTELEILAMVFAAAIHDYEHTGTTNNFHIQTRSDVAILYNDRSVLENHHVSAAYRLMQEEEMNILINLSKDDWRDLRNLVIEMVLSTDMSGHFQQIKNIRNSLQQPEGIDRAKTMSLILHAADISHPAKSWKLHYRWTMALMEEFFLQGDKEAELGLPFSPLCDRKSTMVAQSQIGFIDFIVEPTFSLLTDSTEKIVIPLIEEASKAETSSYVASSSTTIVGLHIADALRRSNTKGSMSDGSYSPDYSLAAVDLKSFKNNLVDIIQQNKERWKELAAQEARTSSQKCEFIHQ

Row | IC50 ([1]; read-out: PDE1B, IC50) [nM] | IC50 [2] [nM] | IC50 [3] [nM] | SMILES | IC50 ([1]; PDE1B, IC50 (nM)) [nM]
1 | 30 | 45 | 130 | COc1ncccc1-c1cc(NCc2ncn(C)n2)c2c(C(C)C)nn(C)c2n1 [Example 55, 3-isopropyl-6-(2-methoxy-3-pyridyl)-1-methyl-N-[(1-methyl-1,2,4-triazol-3-yl)methyl]pyrazolo[3,4-b]pyridin-4-amine] | –
2 | 2.7 | 19 | 7.8 | CCCOc1nnccc1-c1cc(NCc2ncn(C)n2)c2c(C(C)C)nn(C)c2n1 [Example 67, 3-isopropyl-1-methyl-N-[(1-methyl-1,2,4-triazol-3-yl)methyl]-6-(3-propoxypyridazin-4-yl)pyrazolo[3,4-b]pyridin-4-amine] | –
3 | 1 | 7 | 3.3 | CCCOc1ncccc1-c1cc(NCc2cnn(C)c2)c2c(C(C)C)nc(C)n2n1 [Example 71, 5-isopropyl-7-methyl-N-[(1-methylpyrazol-4-yl)methyl]-2-(2-propoxy-3-pyridyl)imidazo[1,5-b]pyridazin-4-amine] | –
4 | 0.27 | 1.1 | 1.4 | CCCOc1ncccc1-c1cc(NCc2ncn(C)n2)c2c(C(C)C)nc(C)n2n1 [Example 72, 5-isopropyl-7-methyl-N-[(1-methyl-1,2,4-triazol-3-yl)methyl]-2-(2-propoxy-3-pyridyl)imidazo[1,5-b]pyridazin-4-amine] | –
5 | 3.6 | 29 | 33 | CCOc1ncccc1-c1cc(NCc2cccnc2F)c2c(C(C)C)nc(C)n2n1 [Example 73, 2-(2-ethoxy-3-pyridyl)-N-[(2-fluoro-3-pyridyl)methyl]-5-isopropyl-7-methyl-imidazo[1,5-b]pyridazin-4-amine] | –
6 | 27 | 190 | 180 | CCOc1ncccc1-c1cc(NCc2ccccn2)c2c(C(C)C)nc(C)n2n1 [Example 74, 2-(2-ethoxy-3-pyridyl)-5-isopropyl-7-methyl-N-(2-pyridylmethyl)imidazo[1,5-b]pyridazin-4-amine] | –
7 | 0.13 | 24 | 11 | CCOc1ncccc1-c1cc(NCc2ncccn2)c2c(C(C)C)nc(C)n2n1 [Example 75, 2-(2-ethoxy-3-pyridyl)-5-isopropyl-7-methyl-N-(pyrimidin-2-ylmethyl)imidazo[1,5-b]pyridazin-4-amine] | –
8 | 17 | 110 | 89 | CCOc1ncccc1-c1cc(NCc2ncc(F)cn2)c2c(C(C)C)nc(C)n2n1 [Example 76, 2-(2-ethoxy-3-pyridyl)-N-[(5-fluoropyrimidin-2-yl)methyl]-5-isopropyl-7-methyl-imidazo[1,5-b]pyridazin-4-amine] | –

The next lines start with the compound.

Row | SMILES | IC50 ([1]; read-out: PDE1B, IC50) [nM] | IC50 [2] [nM] | IC50 [3] [nM] | IC50 ([1]; PDE1B, IC50 (nM)) [nM]
9 | CC(C)c1nn(C)c2nc(-c3cccn(C)c3=O)cc(NCc3ncn(C)n3)c12 [Example 56, 3-(3-isopropyl-1-methyl-4-(((1-methyl-1H-1,2,4-triazol-3-yl)methyl)amino)-1H-pyrazolo[3,4-b]pyridin-6-yl)-1-methylpyridin-2(1H)-one] | 52 | 480 | 290 | –
10 | COc1nccnc1-c1cc(NCc2ncn(C)n2)c2c(C(C)C)nn(C)c2n1 [Example 57, 3-isopropyl-6-(3-methoxypyrazin-2-yl)-1-methyl-N-((1-methyl-1H-1,2,4-triazol-3-yl)methyl)-1H-pyrazolo[3,4-b]pyridin-4-amine] | 22 | 6.5 | 91 | –
11 | Cc1sccc1-c1cc(NCc2ncn(C)n2)c2c(C(C)C)nn(C)c2n1 [Example 58, 3-isopropyl-1-methyl-6-(2-methyl-3-thienyl)-N-[(1-methyl-1,2,4-triazol-3-yl)methyl]pyrazolo[3,4-b]pyridin-4-amine] | 4.6 | 31 | 29 | –
12 | Cc1coc(-c2cc(NCc3ncn(C)n3)c3c(C(C)C)nn(C)c3n2)n1 [Example 59, 3-isopropyl-1-methyl-N-((1-methyl-1H-1,2,4-triazol-3-yl)methyl)-6-(4-methyloxazol-2-yl)-1H-pyrazolo[3,4-b]pyridin-4-amine] | – | 67 | 99 | 14
13 | Cc1csc(-c2cc(NCc3ncn(C)n3)c3c(C(C)C)nn(C)c3n2)n1 [Example 60, 3-isopropyl-1-methyl-6-(4-methylthiazol-2-yl)-N-[(1-methyl-1,2,4-triazol-3-yl)methyl]pyrazolo[3,4-b]pyridin-4-amine] | 8.8 | 74 | 48 | –
14 | Cc1ncsc1-c1cc(NCc2ncn(C)n2)c2c(C(C)C)nn(C)c2n1 [Example 61, 3-isopropyl-1-methyl-N-((1-methyl-1H-1,2,4-triazol-3-yl)methyl)-6-(4-methylthiazol-5-yl)-1H-pyrazolo[3,4-b]pyridin-4-amine] | 4.6 | 46 | 32 | –
15 | Cc1cnc(-c2cc(NCc3ncn(C)n3)c3c(C(C)C)nn(C)c3n2)s1 [Example 62, 3-isopropyl-1-methyl-6-(5-methylthiazol-2-yl)-N-[(1-methyl-1,2,4-triazol-3-yl)methyl]pyrazolo[3,4-b]pyridin-4-amine] | 170 | 150 | 280 | –
16 | CC(C)c1nn(C)c2nc(-c3ccccc3)cc(NCc3ncn(C)n3)c12 [Example 63, 3-isopropyl-1-methyl-N-[(1-methyl-1,2,4-triazol-3-yl)methyl]-6-phenyl-pyrazolo[3,4-b]pyridin-4-amine] | 21 | 36 | 83 | –
17 | COc1ncncc1-c1cc(NCc2ncn(C)n2)c2c(C(C)C)nn(C)c2n1 [Example 64, 3-isopropyl-6-(4-methoxypyrimidin-5-yl)-1-methyl-N-[(1-methyl-1,2,4-triazol-3-yl)methyl]pyrazolo[3,4-b]pyridin-4-amine] | 13 | 2.9 | 66 | –
18 | CC(C)c1nn(C)c2nc(-c3cccs3)cc(NCc3ncn(C)n3)c12 [Example 65, 3-isopropyl-1-methyl-N-[(1-methyl-1,2,4-triazol-3-yl)methyl]-6-(2-thienyl)pyrazolo[3,4-b]pyridin-4-amine] | 5.1 | 46 | 31 | –
19 | CCOc1nnccc1-c1cc(NCc2ncn(C)n2)c2c(C(C)C)nn(C)c2n1 [Example 66, 6-(3-ethoxypyridazin-4-yl)-3-isopropyl-1-methyl-N-[(1-methyl-1,2,4-triazol-3-yl)methyl]pyrazolo[3,4-b]pyridin-4-amine] | 3.7 | 39 | 27 | –
20 | CCOc1cnccc1-c1cc(NCc2ncn(C)n2)c2c(C(C)C)nn(C)c2n1 [Example 68, 6-(3-ethoxy-4-pyridyl)-3-isopropyl-1-methyl-N-[(1-methyl-1,2,4-triazol-3-yl)methyl]pyrazolo[3,4-b]pyridin-4-amine] | 5.5 | 59 | 58 | –
21 | CCOc1nnccc1-c1cc(NCc2cnn(C)c2)c2c(C(C)C)nc(C)n2n1 [Example 69, 2-(3-ethoxypyridazin-4-yl)-5-isopropyl-7-methyl-N-[(1-methylpyrazol-4-yl)methyl]imidazo[1,5-b]pyridazin-4-amine] | 5.2 | 25 | 24 | –
22 | CCOc1cnccc1-c1cc(NCc2cnn(C)c2)c2c(C(C)C)nc(C)n2n1 [Example 70, 2-(3-ethoxy-4-pyridyl)-5-isopropyl-7-methyl-N-[(1-methylpyrazol-4-yl)methyl]imidazo[1,5-b]pyridazin-4-amine] | 6.3 | 28 | 21 | –
23 | CCOc1ncccc1-c1cc(NCc2cccnc2OC)c2c(C(C)C)nc(C)n2n1 [Example 77, 2-(2-ethoxy-3-pyridyl)-5-isopropyl-N-[(2-methoxy-3-pyridyl)methyl]-7-methyl-imidazo[1,5-b]pyridazin-4-amine] | 9 | 48 | 48 | –
24 | CCOc1ncccc1-c1cc(NCc2cccc3cncn23)c2c(C(C)C)nc(C)n2n1 [Example 78, 2-(2-ethoxy-3-pyridyl)-N-(imidazo[1,5-a]pyridin-5-ylmethyl)-5-isopropyl-7-methyl-imidazo[1,5-b]pyridazin-4-amine] | 5.5 | 39 | 61 | –
25 | CCOc1ncccc1-c1cc(NCc2cccc3nccn23)c2c(C(C)C)nc(C)n2n1 [Example 79, 2-(2-ethoxy-3-pyridyl)-N-(imidazo[1,2-a]pyridin-5-ylmethyl)-5-isopropyl-7-methyl-imidazo[1,5-b]pyridazin-4-amine] | 28 | 19 | 35 | –
26 | CCOc1ncccc1-c1cc(NCc2cccnc2C(F)(F)F)c2c(C(C)C)nc(C)n2n1 [Example 80, 2-(2-ethoxy-3-pyridyl)-5-isopropyl-7-methyl-N-[[2-(trifluoromethyl)-3-pyridyl]methyl]imidazo[1,5-b]pyridazin-4-amine] | 15 | 72 | 74 | –
